Laboratory results published in patent US11504364B2, “Inhibitors of fibroblast activation protein” (Praxis Biotech LLC, priority 2018, dated 2022).

Tests used:
[1] = target: recombinant human DPPIV (rhDPPIV) (Homo sapiens (Human), UniProt P27487); assay: DPPIV enzymatic activity assay; type: biochemical; conditions: Table 3B
[2] = target: recombinant human DPP9 (rhDPP9) (Homo sapiens (Human), UniProt Q86TI2); assay: Inhibition of DPP9 activity, 10 ng rhDPP9, H-Gly-Pro-AMC; type: biochemical; conditions: Table 3B
Chain of recombinant human DPP9 (rhDPP9) (Q86TI2 whole entry): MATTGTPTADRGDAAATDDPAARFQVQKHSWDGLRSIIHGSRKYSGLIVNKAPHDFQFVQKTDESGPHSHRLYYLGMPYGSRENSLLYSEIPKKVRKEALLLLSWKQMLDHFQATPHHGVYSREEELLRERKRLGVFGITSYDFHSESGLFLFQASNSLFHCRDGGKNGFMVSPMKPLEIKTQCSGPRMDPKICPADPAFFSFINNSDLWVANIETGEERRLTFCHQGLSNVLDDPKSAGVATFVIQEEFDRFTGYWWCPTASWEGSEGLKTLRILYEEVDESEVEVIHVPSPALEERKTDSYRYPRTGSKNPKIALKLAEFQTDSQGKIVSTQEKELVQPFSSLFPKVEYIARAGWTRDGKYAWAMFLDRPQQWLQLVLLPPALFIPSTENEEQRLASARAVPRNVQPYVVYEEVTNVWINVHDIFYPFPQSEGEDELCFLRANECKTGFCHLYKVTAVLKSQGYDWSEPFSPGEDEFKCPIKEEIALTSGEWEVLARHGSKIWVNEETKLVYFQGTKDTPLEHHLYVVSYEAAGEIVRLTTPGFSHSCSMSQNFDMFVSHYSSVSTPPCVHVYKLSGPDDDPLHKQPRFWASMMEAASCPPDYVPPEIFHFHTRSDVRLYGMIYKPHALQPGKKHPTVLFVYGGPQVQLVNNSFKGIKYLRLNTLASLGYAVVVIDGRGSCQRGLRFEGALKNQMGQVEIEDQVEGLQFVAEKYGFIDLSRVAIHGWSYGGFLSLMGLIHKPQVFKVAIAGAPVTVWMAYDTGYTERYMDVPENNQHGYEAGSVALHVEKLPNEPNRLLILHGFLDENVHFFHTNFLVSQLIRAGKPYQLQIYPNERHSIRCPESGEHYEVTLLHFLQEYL

Chain of recombinant human DPPIV (rhDPPIV) (P27487 whole entry): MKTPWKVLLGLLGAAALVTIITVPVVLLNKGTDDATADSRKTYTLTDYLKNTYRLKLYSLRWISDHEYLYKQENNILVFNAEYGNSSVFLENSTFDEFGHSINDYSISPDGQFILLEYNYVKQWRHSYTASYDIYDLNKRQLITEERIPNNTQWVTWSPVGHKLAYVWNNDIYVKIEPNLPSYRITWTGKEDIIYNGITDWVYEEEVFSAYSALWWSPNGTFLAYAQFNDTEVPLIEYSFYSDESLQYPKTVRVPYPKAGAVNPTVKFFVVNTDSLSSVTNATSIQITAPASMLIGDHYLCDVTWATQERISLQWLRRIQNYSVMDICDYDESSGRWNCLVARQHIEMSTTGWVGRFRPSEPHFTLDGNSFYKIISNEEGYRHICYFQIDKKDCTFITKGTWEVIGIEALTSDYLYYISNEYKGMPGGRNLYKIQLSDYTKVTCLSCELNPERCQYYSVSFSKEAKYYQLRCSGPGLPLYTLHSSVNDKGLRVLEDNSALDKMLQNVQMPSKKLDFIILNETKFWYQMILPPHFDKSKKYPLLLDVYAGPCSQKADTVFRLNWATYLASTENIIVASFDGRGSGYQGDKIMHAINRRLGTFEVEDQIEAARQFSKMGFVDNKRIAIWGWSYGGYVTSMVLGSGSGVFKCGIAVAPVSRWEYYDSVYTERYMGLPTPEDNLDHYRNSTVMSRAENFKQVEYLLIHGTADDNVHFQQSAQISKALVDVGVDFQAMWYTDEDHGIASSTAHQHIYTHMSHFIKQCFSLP

SMILES	IC50 [1] [nM]	IC50 [2] [nM]
N#C[C@@H]1CC(F)(F)CN1C(=O)CNC(=O)c1ccnc2ccc(-c3cccnc3)cc12 [Compound 5, (S)—N-(2-(2-cyano-4,4-difluoropyrrolidin-1-yl)-2-oxoethyl)-6-(pyridin-3-yl)quinoline-4-carboxamide]	> 10000	< 1000
N#C[C@@H]1CC(F)(F)CN1C(=O)CNC(=O)c1ccnc2ccc(-c3ccncc3)cc12 [Compound 6, (S)—N-(2-(2-cyano-4,4-difluoropyrrolidin-1-yl)-2-oxoethyl)-6-(pyridin-4-yl)quinoline-4-carboxamide]	> 10000	< 1000
CC(C)(C)c1ccc(-c2ccc3nccc(C(=O)NCC(=O)N4CC(F)(F)C[C@H]4C#N)c3c2)cc1 [Compound 7, (S)-6-(4-(tert-butyl)phenyl)-N-(2-(2-cyano-4,4-difluoropyrrolidin-1-yl)-2-oxoethyl)quinoline-4-carboxamide]	> 10000	< 1000
Cn1ccc2cc(-c3ccc4nccc(C(=O)NCC(=O)N5CC(F)(F)C[C@H]5C#N)c4c3)ccc21 [Compound 8, (S)—N-(2-(2-cyano-4,4-difluoropyrrolidin-1-yl)-2-oxoethyl)-6-(1-methyl-1H-indol-5-yl)quinoline-4-carboxamide]	1000 to 10000	< 1000
N#C[C@@H]1CC(F)(F)CN1C(=O)CNC(=O)c1ccnc2ccc(-c3ccc4[nH]ccc4c3)cc12 [Compound 9, (S)—N-(2-(2-cyano-4,4-difluoropyrrolidin-1-yl)-2-oxoethyl)-6-(1H-indol-5-yl)quinoline-4-carboxamide]	> 10000	< 1000
Cn1cc(-c2ccc3nccc(C(=O)NCC(=O)N4CC(F)(F)C[C@H]4C#N)c3c2)cn1 [Compound 10, (S)—N-(2-(2-cyano-4,4-difluoropyrrolidin-1-yl)-2-oxoethyl)-6-(1-methyl-1H-pyrazol-4-yl)quinoline-4-carboxamide]	> 10000	< 1000
N#C[C@@H]1CC(F)(F)CN1C(=O)CNC(=O)c1ccnc2ccc(-c3cnn(C4CC4)c3)cc12 [Compound 11, (S)—N-(2-(2-cyano-4,4-difluoropyrrolidin-1-yl)-2-oxoethyl)-6-(1-cyclopropyl-1H-pyrazol-4-yl)quinoline-4-carboxamide]	1000 to 10000	< 1000
N#C[C@@H]1CC(F)(F)CN1C(=O)CNC(=O)c1ccnc2ccc(-c3ccc4c(c3)CCN4)cc12 [Compound 12, (S)—N-(2-(2-cyano-4,4-difluoropyrrolidin-1-yl)-2-oxoethyl)-6-(indolin-5-yl)quinoline-4-carboxamide]	> 10000	< 1000
CC(C)C/C=C/c1ccc2nccc(C(=O)NCC(=O)N3CC(F)(F)C[C@H]3C#N)c2c1 [Compound 13, (S,E)-N-(2-(2-cyano-4,4-difluoropyrrolidin-1-yl)-2-oxoethyl)-6-(4-methylpent-1-en-1-yl)quinoline-4-carboxamide]	> 10000	< 1000
N#C[C@@H]1CC(F)(F)CN1C(=O)CNC(=O)c1ccnc2ccc(/C=C/c3ccccc3)cc12 [Compound 14, (S,E)-N-(2-(2-cyano-4,4-difluoropyrrolidin-1-yl)-2-oxoethyl)-6-styrylquinoline-4-carboxamide]	> 10000	< 1000
CN(C)c1ccc2cc(-c3ccc4nccc(C(=O)NCC(=O)N5CC(F)(F)C[C@H]5C#N)c4c3)ccc2c1 [Compound 15, (S)—N-(2-(2-cyano-4,4-difluoropyrrolidin-1-yl)-2-oxoethyl)-6-(6-(dimethylamino)naphthalen-2-yl)quinoline-4-carboxamide]	> 10000	< 1000
N#C[C@@H]1CC(F)(F)CN1C(=O)CNC(=O)c1ccnc2ccc(-c3ccc(=O)[nH]c3)cc12 [Compound 17, (S)—N-(2-(2-cyano-4,4-difluoropyrrolidin-1-yl)-2-oxoethyl)-6-(6-oxo-1,6-dihydropyridin-3-yl)quinoline-4-carboxamide]	> 10000	< 1000
